The values below come from patent US6417222B1, “[2-substituted-5-[3-thienyl)-benzyl]-2- ([2-isopropoxy-5-fluoro]-phenyoxy)-ethyl]-amine derivatives, method for the production and use thereof as medicaments” (Pierre Fabre Medicament, priority 1999, dated 2002).

One series concerns the target T1, D2 receptors (Rattus norvegicus, UniProt P61169).
T1 construct: from tissue; host or cells: whole living rat (central nervous system)
Kind of series: Inhibition of the behavior induced by methylphenidate (antidopaminergic activity in vivo). As to conditions: rats, oral administration, read-out: Normalization ED50. From the text:
(§1) 2—Evaluation of the antagonist activity of the D2 receptors and of the cataleptogenic effects of the compounds of the invention in vivo

The nature of series [1]: Cataleptogenic power (extrapyramidal side effects). As to conditions: rat, in vivo; rats, oral administration; read-out: Catalepsy ED50.
Text: as §1
The test for evaluating the propensity of the products of the invention to cause side effects of extrapyramidal order is based on their cataleptogenic power, measured in rats, according to the method described in Eur. J. Pharmacol. 1996, 313, 25.

Another series concerns the target receptors of the D2 type (Homo sapiens, UniProt P14416). Kind of series: Affinity for D2 receptors by displacement of (3H) YM-09151-2. Type of series: binding. As to conditions: mean of at least 3 experiments, read-out: D2 pKi (converted). The procedure:
1—Measurement of the affinity of the compounds of the invention for the D2 receptors.
The affinity of the compounds of the invention for the receptors of the D2 type was determined by measuring the displacement of (^3H) YM-09151-2 (NET-1004 70-87 Ci/mmol), according to the method described in Naunyn-Schimiedeberg's Arch. Pharmacol. Methods, 1985, 329, 333. The pKi values (−log Ki) are given in the form of a mean ±SEM of at least 3 experiments.

T1 sequence (P61169 whole entry): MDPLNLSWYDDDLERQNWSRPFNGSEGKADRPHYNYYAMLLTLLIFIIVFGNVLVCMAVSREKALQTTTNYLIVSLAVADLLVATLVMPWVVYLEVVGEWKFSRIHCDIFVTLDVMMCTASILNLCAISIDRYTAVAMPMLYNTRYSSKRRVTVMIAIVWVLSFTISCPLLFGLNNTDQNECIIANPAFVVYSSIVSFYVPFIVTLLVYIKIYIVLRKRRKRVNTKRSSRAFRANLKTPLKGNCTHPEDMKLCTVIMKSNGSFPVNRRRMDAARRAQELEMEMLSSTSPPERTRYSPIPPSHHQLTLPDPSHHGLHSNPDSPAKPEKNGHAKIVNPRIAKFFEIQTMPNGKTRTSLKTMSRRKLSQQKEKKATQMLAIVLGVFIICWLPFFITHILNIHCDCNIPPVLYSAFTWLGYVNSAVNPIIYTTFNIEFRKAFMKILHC
Sequence of receptors of the D2 type (P14416 whole entry): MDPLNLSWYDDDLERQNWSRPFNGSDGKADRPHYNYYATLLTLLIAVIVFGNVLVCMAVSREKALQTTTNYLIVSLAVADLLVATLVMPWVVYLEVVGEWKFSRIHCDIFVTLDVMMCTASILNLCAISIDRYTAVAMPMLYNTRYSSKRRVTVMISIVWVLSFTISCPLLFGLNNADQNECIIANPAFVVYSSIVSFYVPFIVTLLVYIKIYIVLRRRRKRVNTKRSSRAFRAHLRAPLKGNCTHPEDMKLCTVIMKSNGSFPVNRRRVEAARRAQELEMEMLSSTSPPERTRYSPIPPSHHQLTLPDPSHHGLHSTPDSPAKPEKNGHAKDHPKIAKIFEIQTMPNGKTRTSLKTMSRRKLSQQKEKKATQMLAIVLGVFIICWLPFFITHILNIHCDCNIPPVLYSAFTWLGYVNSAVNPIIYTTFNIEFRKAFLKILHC

In the case of `Cc1nc2n(c(=O)c1CCN1CCC(c3noc4cc(F)ccc34)CC1)CCCC2` [Risperidone, reference compound], on D2 receptors, the ED50 (in general, the dose that gives a 50% effect, or the effect in half of the subjects) turned out to be 6.5 mg/kg.
With `CC(C)Oc1ccc(F)cc1OCCNCc1cccc(-c2ccsc2)c1` [la, [3-(3-Thienyl)benzyl]-[2-([5-fluoro-2-isopropoxy]-phenoxy)ethyl]amine], the ED50 was more than 40 mg/kg in series [1] and 0.7 mg/kg at D2 receptors. In addition, the Ki at receptors of the D2 type was 0.355 nM.
